# Test results taken from patent US20250339415A1, “DISULFIDE COMPOUNDS AS MEDICAMENTS” (CYTACOAT AB, priority 2021, published 2025).
# “And” between values parts separate entries of the source, which are not always exact repeats. Identical values can stand only once. Counter-ions that a name gives are not always drawn.
# How the values were obtained:
# [1] = test system: T-24 cells; assay: Cancer cell viability assay (XTT); assay type: cell-based, human; conditions: for % cell survival / Absorbance unit / Absorbance unit - Blank: triplicate, (hydrochloride)
# Procedure: (§1) Two types of human uroepithelial cancer cells (124 and 5637) were tested in an XTT assay. “T24” cells were cultured in McCoy's 5A (Modified) Medium, Catalog number: 16600082 from GIBCO. “5637” cells were cultured in RPMI 1640 Medium, Catalog number: 21875034 from GIBCO. Different concentrations of 2-(Pyridyldithio)ethylamine (hydrochloride) (PDEA) (CAS: 106139-15-5): 12.5, 25, 50, 100 and 200 μM, were prepared in each cell culture medium.
# (§2) 1. 5×10^5 cells were seeded into 24-well plate overnight at 37-degree C. in 5% CO2.
# (§3) 2. 80% confluent cells were treated with 200 μl medium with different concentrations of PDEA and the control.
# (§4) 3. After 24 hrs, medium (MacCoy's 5a for T24, RPMI for 5637) was removed and cells were washed 2 times with 200 μl of pre-warmed PBS/well. 200 μl (96-well) of pre-prepared fresh medium containing XTT-menadione to wells were added (mentioned below).
# (§5) 4. Cells were incubated for at least 3 h at 37-degree C. Medium with XTT only in empty wells were served as background control.
# (§6) 5. The supernatant was transferred to 96-well plate and the concentration were measured at 450 nm and 690 nm. 690 nm was used as a background measurement and subtracted from 450 nm value.
# (§7) Menadione (172.18 g/mol, light sensitive): dissolve 1 mg/ml in absolute ethanol. XTT: 1 mg/ml dissolve in PBS, 0.2 μm filtrate sterilised, store at −20° C. (Sigma X4626). Pre-warm to 37° C. before use.
# (§8) Prepare solution: Add 2.15 μl of menadione/ml (final concentration 12.5 μM 0 2.15 mg/l) to 1 ml of XTT directly before use. Prepare XTT-menadione solution equal to 20% of the culture medium volume to be tested.
# (§9) Results are shown below and represented graphically in FIGS. 1 and 2. “Blank” is cell culture medium only.
# [2] = test system: 5637 cells; assay: Cancer cell viability assay (XTT); assay type: cell-based, human; conditions: for % cell survival / Absorbance unit / Absorbance unit - Blank: triplicate, (hydrochloride)
# Procedure: as §1, §2, §3, §4, §5, §6, §7, §8, §9
# [3] = test system: E. coli; assay: Combination therapy: Gentamycin with PDEA, visible growth; assay type: cell-based; conditions: Gentamycin 0 μg/ml
# Procedure: (§10) Different concentrations of Gentamycin in Mueller Hinton were prepared in 3 different concentrations of PDEA. E. coli and S. aureus were inoculated (10^5) and were incubated O/N.
# (§11) Readouts were “Clear” and “Foggy”.
# [4] = test system: S. aureus; assay: as above; assay type: cell-based; conditions: Gentamycin 0 μg/ml
# Procedure: as §10, §11
smiles,measurement,setting,value
"NCCSSc1ccccn1 [PDEA, 2-(Pyridyldithio)ethylamine (hydrochloride)]",% cell survival,[1]; 12.5 μM,99.37% and 98.6% and 99.88%
same,Absorbance unit,[1]; 12.5 μM,1.63 and 1.659 and 1.884
same,Absorbance unit - Blank,[1]; 12.5 μM,1.429 and 1.483 and 1.686
same,% cell survival,[1]; 25 μM,100.1391% and 95.0133% and 97.81%
same,Absorbance unit,[1]; 25 μM,1.641 and 1.605 and 1.849
same,Absorbance unit - Blank,[1]; 25 μM,1.44 and 1.429 and 1.651
same,% cell survival,[1]; 50 μM,76.43% and 73.67% and 89.6327%
same,Absorbance unit,[1]; 50 μM,1.3 and 1.284 and 1.711
same,Absorbance unit - Blank,[1]; 50 μM,1.099 and 1.108 and 1.513
same,% cell survival,[1]; 100 μM,65.3% and 80.52% and 62.09%
same,Absorbance unit,[1]; 100 μM,1.14 and 1.387 and 1.246
same,Absorbance unit - Blank,[1]; 100 μM,0.939 and 1.211 and 1.048
same,cytotoxicity at 50 µM,"[1]; Homo sapiens, T-24, 50 μM PDEA, 24 hrs, read-out: cell viability reduced by",10 to 26%
same,cytotoxicity at 200 µM,"[1]; Homo sapiens, T-24, 200 μM PDEA, 24 hrs, read-out: cell viability reduced by",83 to 100%
same,% cell survival,[2]; 12.5 μM,104.6875% and 96.65% and 91.2594%
same,Absorbance unit,[2]; 12.5 μM,1.229 and 1.224 and 1.119
same,Absorbance unit - Blank,[2]; 12.5 μM,1.072 and 1.069 and 0.971
same,% cell survival,[2]; 25 μM,109.082% and 103.9783% and 102.2556%
same,Absorbance unit,[2]; 25 μM,1.274 and 1.305 and 1.236
same,Absorbance unit - Blank,[2]; 25 μM,1.117 and 1.15 and 1.088
same,% cell survival,[2]; 50 μM,115.0391% and 99.55% and 123.5902%
same,Absorbance unit,[2]; 50 μM,1.335 and 1.256 and 1.463
same,Absorbance unit - Blank,[2]; 50 μM,1.178 and 1.101 and 1.315
same,% cell survival,[2]; 100 μM,83.4% and 52.8% and 57.42%
same,Absorbance unit,[2]; 100 μM,1.011 and 0.739 and 0.759
same,Absorbance unit - Blank,[2]; 100 μM,0.854 and 0.584 and 0.611
same,% cell survival,[2]; 200 μM,3.613% and 3.436% and 4.793%
same,Absorbance unit,[2]; 200 μM,0.194 and 0.193 and 0.199
same,Absorbance unit - Blank,[2]; 200 μM,0.037 and 0.038 and 0.051
same,cytotoxicity at 100 µM,"[2]; Homo sapiens, 100 μM PDEA, 24 hrs, read-out: cell viability reduced by",17 to 47%
same,cytotoxicity at 200 µM,"[2]; Homo sapiens, 200 μM PDEA, 24 hrs, read-out: cell viability reduced by",95 to 100%
same,Visible growth readout (Clear/Foggy),[3]; PDEA 0.0125 mM,Foggy
same,Visible growth readout (Clear/Foggy),[3]; PDEA 0.025 mM,Foggy
same,Visible growth readout (Clear/Foggy),[3]; PDEA 0.04 mM,Clear
same,Visible growth readout (Clear/Foggy),[4]; PDEA 0.0125 mM,Foggy
same,Visible growth readout (Clear/Foggy),[4]; PDEA 0.025 mM,Foggy
same,Visible growth readout (Clear/Foggy),[4]; PDEA 0.05 mM,Foggy
